{"source": "patent US20240166693A1", "about": "“METHODS AND COMPOUNDS FOR MODULATING MYOTONIC DYSTROPY 1” (Design Therapeutics, Inc., priority 2020, published 2024)", "note": "pEC50: −log10 of the molar value. Starred links: 1 amine or outer side, 2 acyl side, 3 side chain; linkers in the order of their positions; H or OH if unused. Positions of bridges follow the written chain, without caps; N, C: chain ends. Non-standard residues stand in square brackets, D forms with d. Residues, ends and D or L forms follow the SMILES beside them. Chains are numbered I, II in the order given. *: point of attachment. ImPyβIm = Cn1cc(NC(=O)c2nccn2C)cc1C(=O)NCCC(=O)Nc1cn(C)c(C(=O)*)n1; HN(CH2CH2O)5CH2CH2NH = C(COCCOCCOCCOCCOCCN[*:2])N[*:1]; 4Amino1MeIm2CO = Cn1cc(N[*:1])nc1C(=O)[*:2]; Benzoyl(4-tBu) = CC(C)(C)c1ccc(C(=O)*)cc1; Lys(Et2) = CCN(CC)CCCC[C@H](N)C(=O)O; X1 = Cn1cc(N[*:1])cc1C(=O)[*:2]; dDab = NCC[C@@H](N)C(=O)O"}
{"tested_on": "Myotonic Dystrophy 1 affected patient fibroblasts (Coriell GM04602; 1600 CTG repeats)", "assay": "DM1 foci reduction assay (CAG10-Cy3 FISH, average foci per nucleus)", "type": "cell-based", "conditions": "Homo sapiens, Fibroblast, 48 h, read-out: Foci Reduction in Fibroblast EC50, 48 h (nM)", "method": "(§1) DM1 foci reduction assay methods: Myotonic Dystrophy 1 affected patient fibroblasts (Coriell GM04602; 1600 CTG repeats) and wild type fibroblasts (Coriell GM07492; control line) were cultured separately in Gibco DMEM (1×)+4.5 g/L D-Glucose+L-Glutamine+110 mg/L Sodium Pyruvate, supplemented with 10% FBS and 1× Pen/Strep. Cells were maintained in incubator at 37° C. and 5% CO2 with media refresh every 48-72 hours.\n(§2) At 90-95% confluency, both cell lines were harvested using Trypl-E then pelleted at 500×g for 5 minutes and were resuspended in media. DM1 fibroblasts were seeded in Agilent 96 well black plates at a density of 5,000 cells/well in 200 μL media; 8 wells were reserved for control fibroblasts. Plates were returned to incubator for 24 hours at 37° C. and 5% CO2.\n(§3) Compounds were diluted from 10 mM stock to 1 mM in DMSO, then diluted once more to 6 μM (2× concentration) in media. Media was removed from all plates and cells were replenished with 100 μL media. Cells were treated in 8-point dose response, 1:3 fold dilution, 3 μM top dose via addition of 100 μL of 6 μM (2× concentration) compound to the 100 μL media with cells. Plates were returned to incubator for 48-hour time-course experiment at 37° C. and 5% CO2.\n(§4) Following treatment, compounds were removed, and plates were washed with PBS, then cells were fixed in 75 μL 4% PFA solution for 20 minutes at room temperature. Plates were washed twice with PBS and twice with cold 70% ethanol before permeabilization with 250 μL cold 70% ethanol for 24-72 hours at −20° C.\n(§5) After permeabilization, plates were washed once with a 30% formamide and 2×SSC buffer and rehydrated in that buffer for 15 minutes at room temperature. Cells were incubated overnight at 37° C. in 75 μL of a hybridization solution containing 30% formamide, 2×SSC, 25 mg/mL dextran sulfate, 2.5 mg/mL BSA, 0.2 μg/mL Herring sperm DNA, 2 mM vanadyl-ribonucleoside complex, and 5 nM CAG10-Cy3 probe.\n(§6) Plates were washed once with 30% formamide in 2×SSC buffer, then twice with the buffer for 30 minutes at 37° C., 300 RPM in an incubating plate shaker. Cells were stained with 75 μL of 2.5 μg/mL DAPI in PBS for 5 minutes at room temperature. Plates were then washed twice with PBS and stored in 250 μL PBS. Plates were sealed with adhesive foil and wiped down with 70% ethanol.\n(§7) Cells were imaged on a Cytation5 with a 20× objective sampling from 4 areas of each well. Nuclei were captured under DAPI channel and foci under RFP channel. Plates were analyzed on an average foci per nucleus per well basis.", "units": {"EC50": "nM"}}
{"compound": "CCCNC(=O)CCNC(=O)c1nc(NC(=O)c2nc(NC(=O)CCNC(=O)c3nc(NC(=O)[C@@H](CCNC(=O)c4cc(NC(=O)c5nc(NC(=O)CCNC(=O)c6cc(NC(=O)c7nccn7C)cn6C)cn5C)cn4C)NC(=O)COCCOCCOCCOCCOCCNC(=O)[C@H](CO)NC(=O)[C@H](CCCCN(CC)CC)NC(=O)[C@H](CC(C)C)NC(=O)[C@H](C)NC(=O)[C@H](Cc4ccccc4)NC(=O)c4ccc(C(C)(C)C)cc4)cn3C)cn2C)cn1C", "note": "[Compound 137]", "EC50": "< 100"}
{"compound": "CCN(CC)CCCC[C@H](NC(=O)[C@H](CC(C)C)NC(=O)[C@H](C)NC(=O)[C@H](Cc1ccccc1)NC(=O)c1ccc(C(C)(C)C)cc1)C(=O)N[C@@H](CO)C(=O)NCCOCCOCCOCCOCCOCCNC(=O)CCNC(=O)c1nc(NC(=O)c2cc(NC(=O)CCNC(=O)c3nc(NC(=O)CCCNC(=O)c4cc(NC(=O)c5nc(NC(=O)CCNC(=O)c6cc(NC(=O)c7nccn7C)cn6C)cn5C)cn4C)cn3C)cn2C)cn1C", "note": "[Compound 25]", "EC50": "100 to 500"}
{"compound": "CCN(CC)CCCC[C@H](NC(=O)[C@H](CC(C)C)NC(=O)[C@H](C)NC(=O)[C@H](Cc1ccccc1)NC(=O)c1ccc(C(C)(C)C)cc1)C(=O)N[C@@H](CO)C(=O)N1CCC(C#CC#CC2CCN(CCOCCNC(=O)CCNC(=O)c3nc(NC(=O)c4cc(NC(=O)CCNC(=O)c5nc(NC(=O)CCCNC(=O)c6cc(NC(=O)c7nc(NC(=O)CCNC(=O)c8cc(NC(=O)c9nccn9C)cn8C)cn7C)cn6C)cn5C)cn4C)cn3C)CC2)CC1", "note": "[Compound 181]", "EC50": "< 100"}
{"compound": "CC(C)C[C@H](NC(=O)[C@H](C)NC(=O)[C@H](Cc1ccccc1)NC(=O)c1ccc(C(C)(C)C)cc1)C(=O)N[C@@H](CCCCN(C)C1CC2CCC1C2)C(=O)N[C@@H](CO)C(=O)NCCOCCOCCNC(=O)c1cc(NC(=O)c2cc(NC(=O)c3nc(NC(=O)c4cc(NC(=O)[C@@H](N)CCNC(=O)c5nc(NC(=O)CCNC(=O)c6cc(NC(=O)c7nccn7C)cn6C)cn5C)cn4C)cn3C)cn2C)cn1C", "note": "(stereo partly drawn) [Compound 83]", "EC50": "> 500"}
{"compound": "CCN(CC)CCCC[C@H](NC(=O)[C@H](CC(C)C)NC(=O)[C@H](C)NC(=O)[C@H](Cc1ccccc1)NC(=O)c1ccc(C(C)(C)C)cc1)C(=O)N[C@@H](CO)C(=O)N1CCC(N2CCN(CCOCCOCCOCCOCCNC(=O)CCNC(=O)c3nc(NC(=O)c4cc(NC(=O)CCNC(=O)c5nc(NC(=O)CCCNC(=O)c6cc(NC(=O)c7nc(NC(=O)CCNC(=O)c8cc(NC(=O)c9nccn9C)cn8C)cn7C)cn6C)cn5C)cn4C)cn3C)CC2)CC1", "note": "[Compound 184]", "EC50": "> 500"}
{"compound": "CCN(CC)CCCC[C@H](NC(=O)CCCCOCCNC(=O)c1ccc(C(C)(C)C)cc1)C(=O)N[C@@H](CO)C(=O)NCCOCCOCCOCCOCCOCCNC(=O)CCNC(=O)c1nc(NC(=O)c2cc(NC(=O)CCNC(=O)c3nc(NC(=O)CCCNC(=O)c4cc(NC(=O)c5nc(NC(=O)CCNC(=O)c6cc(NC(=O)c7nccn7C)cn6C)cn5C)cn4C)cn3C)cn2C)cn1C", "note": "[Compound 138]", "EC50": "100 to 500"}
{"compound": "CC(C)C[C@H](NC(=O)[C@H](Cc1ccccc1)NC(=O)[C@H](CCCCN(C)C(C)C)NC(=O)[C@@H]1C[C@@H]2CCCC[C@@H]2N1)C(=O)NCCOCCOCCOCCOCCOCCNC(=O)CCNC(=O)c1nc(NC(=O)c2cc(NC(=O)CCNC(=O)c3nc(NC(=O)CCCNC(=O)c4cc(NC(=O)c5nc(NC(=O)CCNC(=O)c6cc(NC(=O)c7nccn7C)cn6C)cn5C)cn4C)cn3C)cn2C)cn1C", "note": "[Compound 145]", "EC50": "100 to 500"}
{"compound": "CCN(CC)CCCC[C@H](NC(=O)[C@H](CC(C)C)NC(=O)[C@H](C)NC(=O)[C@H](Cc1ccccc1)NC(=O)c1ccc(C(C)(C)C)cc1)C(=O)N[C@@H](CO)C(=O)NCCOCCOCCN(C)C(=O)CCNC(=O)c1nc(NC(=O)c2cc(NC(=O)CCNC(=O)c3nc(NC(=O)CCCNC(=O)c4cc(NC(=O)c5nc(NC(=O)CCNC(=O)c6cc(NC(=O)c7nccn7C)cn6C)cn5C)cn4C)cn3C)cn2C)cn1C", "note": "[Compound 74]", "EC50": "< 100"}
{"compound": "CCN(CC)CCCC[C@H](NC(=O)CCCCCCCNC(=O)c1ccc(C(C)(C)C)cc1)C(=O)N[C@@H](CO)C(=O)NCCOCCOCCOCCOCCOCCNC(=O)CCNC(=O)c1nc(NC(=O)c2cc(NC(=O)CCNC(=O)c3nc(NC(=O)CCCNC(=O)c4cc(NC(=O)c5nc(NC(=O)CCNC(=O)c6cc(NC(=O)c7nccn7C)cn6C)cn5C)cn4C)cn3C)cn2C)cn1C", "note": "[Compound 139]", "EC50": "< 100"}
{"compound": "CCN(CC)CCCC[C@H](NC(=O)[C@H](CC(C)C)NC(=O)[C@H](C)NC(=O)[C@H](Cc1ccccc1)NC(=O)c1ccc(C(C)(C)C)cc1)C(=O)N[C@@H](CO)C(=O)NCCOCCOCCOCCOCCOCCNC(=O)c1cc(NC(=O)c2cc(NC(=O)c3nc(NC(=O)c4cc(NC(=O)[C@@H](CCNC(=O)c5nc(NC(=O)CCNC(=O)c6cc(NC(=O)c7nccn7C)cn6C)cn5C)NC(C)=O)cn4C)cn3C)cn2C)cn1C", "note": "[Compound 114] (I: {Benzoyl(4-tBu)}-FAL[Lys(Et2)]S / II: Ac-[dDab](ImPyβIm)[X1][4Amino1MeIm2CO][X1][X1]; linker I:C-II:C via HN(CH2CH2O)5CH2CH2NH)", "EC50": "> 500"}
{"compound": "CCN(CC)CCCC[C@H](NC(=O)[C@H](CC(C)C)NC(=O)[C@H](C)NC(=O)[C@H](Cc1ccccc1)NC(=O)c1ccc(C(C)(C)C)cc1)C(=O)N[C@@H](CO)C(=O)NCCOCCOCCOCCOCCOCCNC(=O)c1nc(NC(=O)CCNC(=O)c2cc(NC(=O)c3nc(NC(=O)CCCNC(=O)c4nc(NC(=O)c5nc(CC(=O)CCNC(=O)c6cc(NC(=O)c7nccn7C)cn6C)cn5C)cn4C)cn3C)cn2C)cn1C", "note": "[Compound 104]", "EC50": "> 500"}
{"tested_on": "Myotonic Dystrophy 1 affected patient fibroblasts (Coriell GM04602; 1600 CTG repeats)", "assay": "DM1 foci reduction assay (CAG10-Cy3 FISH, average foci per nucleus)", "type": "cell-based", "conditions": "Homo sapiens, Fibroblast; DM1 fibroblasts, 48 h treatment, 8-point dose response, 3 μM top dose; read-out: Foci Reduction in Fibroblast EC50, 48 h", "method": "as §1, §2, §3, §4, §5, §6, §7"}
{"compound": "COc1c(OCCOCCOCCOCCOCCOCCNC(=O)CCNC(=O)c2nc(NC(=O)c3cc(NC(=O)CCNC(=O)c4nc(NC(=O)CCCNC(=O)c5cc(NC(=O)c6nc(NC(=O)CCNC(=O)c7cc(NC(=O)c8nccn8C)cn7C)cn6C)cn5C)cn4C)cn3C)cn2C)cccc1C(=O)N1CCN(C(=O)COc2cccc(OCCNC(=O)CNC(=O)c3ccc(C(C)(C)C)cc3)c2)CC1", "note": "[Compound 159]", "pEC50": "6.30 to 7.00"}
{"compound": "Cn1cc(NC(=O)c2nc(NC(=O)CCNC(=O)c3cc(NC(=O)c4nccn4C)cn3C)cn2C)cc1C(=O)NCCCC(=O)Nc1cn(C)c(C(=O)NCCC(=O)Nc2cc(C(=O)Nc3cn(C)c(C(=O)NCCC(=O)NCCOCCOCCOCCOCCOCCOc4ccc(NC(=O)CCCCCCC(=O)NO)cc4)n3)n(C)c2)n1", "note": "[Compound 129, N-hydroxy-N′-{4-[(17-{3-[(1-methyl-4-{1-methyl-4-[3-({1-methyl-4-[4-({1-methyl-4-[1-methyl-4-(3-{[1-methyl-4-(1-methylimidazole-2-amido)pyrrol-2-yl]formamido}propanamido)imidazole-2-amido]pyrrol-2-yl}formamido)butanamido]imidazol-2-yl}formamido)propanamido]pyrrole-2-amido}imidazol-2-yl)formamido]propanamido}-3,6,9,12,15-pentaoxaheptadecan-1-yl)oxy]phenyl}octanediamide]", "pEC50": "< 6.30"}
{"compound": "Cn1cc(NC(=O)c2nc(NC(=O)CCNC(=O)c3cc(NC(=O)c4nccn4C)cn3C)cn2C)cc1C(=O)NCCCC(=O)Nc1cn(C)c(C(=O)NCCC(=O)Nc2cc(C(=O)Nc3cn(C)c(C(=O)NCCC(=O)NCCOCCOCCOCCOCCOCCOCCOCCOCCOCCOCCN4CCC(C(=O)Nc5ncc(SCc6ncc(C(C)(C)C)o6)s5)CC4)n3)n(C)c2)n1", "note": "[Compound 17]", "pEC50": "< 6.30"}
{"compound": "Cn1cc(NC(=O)c2nc(NC(=O)CCNC(=O)c3cc(NC(=O)c4nccn4C)cn3C)cn2C)cc1C(=O)NCCCC(=O)Nc1cn(C)c(C(=O)NCCC(=O)Nc2cc(C(=O)Nc3cn(C)c(C(=O)NCCC(=O)NCCOCCOCCn4cc(CC(=O)Nc5ccc(C(=O)Nc6ccccc6N)cc5)nn4)n3)n(C)c2)n1", "note": "[Compound 123]", "pEC50": "< 6.30"}
